Legend:
Assay in all cases: combination Emax (second highest fraction inhibited in the dose matrix, 72 h); higher = more inhibition; extreme values may be limits of the assay
[1] = system: 639-V (Bladder Carcinoma)
Summary of the method: (§1)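 Cell lines in DMEM/F12 or RPMI with 10% FBS were plated in 1536-well plates, held 24 hours at 37°C, 5% CO2, then given two-drug dose matrices for 72 hours (DMSO typically 0.2%). Viability was read by CellTiter-Glo 2.0 luminescence and scaled as inhibition from 0 (vehicle wells) to 1 (blank wells). Combination Emax is the second-highest inhibition in the matrix; Bliss excess is observed combination effect minus expected EA + EB − EA·EB, EA and EB being single-agent effects.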

[2] = system: 8305C (Thyroid Gland Carcinoma)
Summary of the method: as §1

[3] = system: CAL-51 (Breast Carcinoma)
Summary of the method: as §1

[4] = system: CAL-54 (Kidney Carcinoma)
Summary of the method: as §1

[5] = system: COLO-829 (Melanoma)
Summary of the method: as §1

[6] = system: CTB-1 (B-Cell Non-Hodgkin's Lymphoma)
Summary of the method: as §1

[7] = system: HMV-II (Melanoma)
Summary of the method: as §1

[8] = system: Hs-633T (Other Solid Carcinomas)
Summary of the method: as §1

[9] = system: KARPAS-231 (B-Cell Non-Hodgkin's Lymphoma)
Summary of the method: as §1

[10] = system: LU-139 (Small Cell Lung Carcinoma)
Summary of the method: as §1

[11] = system: Mewo (Melanoma)
Summary of the method: as §1

[12] = system: NCI-H2461 (Mesothelioma)
Summary of the method: as §1

[13] = system: NCI-H747 (Colorectal Carcinoma)
Summary of the method: as §1

[14] = system: PCI-30 (Head and Neck Carcinoma)
Summary of the method: as §1

[15] = system: RPMI-6666 (Non-Cancerous)
Summary of the method: as §1

[16] = system: RT-112 (Bladder Carcinoma)
Summary of the method: as §1

[17] = system: SU-DHL-6 (B-Cell Non-Hodgkin's Lymphoma)
Summary of the method: as §1

[18] = system: SW1116 (Colorectal Carcinoma)
Summary of the method: as §1

[19] = system: TE-4 (Esophageal Squamous Cell Carcinoma)
Summary of the method: as §1

[20] = system: UMC-11 (Other Solid Carcinomas)
Summary of the method: as §1

| SMILES | combination Emax [1] | combination Emax [2] | combination Emax [3] | combination Emax [4] | combination Emax [5] | combination Emax [6] | combination Emax [7] | combination Emax [8] | combination Emax [9] | combination Emax [10] | combination Emax [11] | combination Emax [12] | combination Emax [13] | combination Emax [14] | combination Emax [15] | combination Emax [16] | combination Emax [17] | combination Emax [18] | combination Emax [19] | combination Emax [20] |
| --- | --- | --- | --- | --- | --- | --- | --- | --- | --- | --- | --- | --- | --- | --- | --- | --- | --- | --- | --- | --- |
| Cc1c2c(nn1C)CSCc1cc(n(C)n1)CSc1cc(c3ccccc3c1)OCCCc1c(C(=O)O)n(C)c3c-2c(Cl)ccc13 [AZD5991] + C[C@@H](Nc1cc(F)cc(F)c1)c1cc(C(=O)N(C)C)cc2c(=O)cc(N3CCOCC3)oc12 [AZD8186] (first compound max 1 µM, 7x7, partner max 3 µM) | 0.421 | 0.588 | 0.336 | 0.602 | 0.17 | 0.384 | 0.192 | 0.268 | 1 | 0.174 | 0.314 | 0.363 | 0.517 | 0.264 | 0.717 | 0.89 | 1 | 0.17 | 0.377 | 0.32 |
| CN(CCO)CC[C@H](CSc1ccccc1)Nc1ccc(S(=O)(=O)NC(=O)c2ccc(N3CCC([C@@H](O)c4ccccc4-c4ccc(Cl)cc4)CC3)cc2)cc1S(=O)(=O)C(F)(F)F [AZD4320] + Cn1cnc2c(F)c(Nc3ccc(Br)cc3Cl)c(C(=O)NOCCO)cc21 [Selumetinib] (first compound max 1 µM, 7x7, partner max 3 µM) | 0.978 | 0.71 | 0.487 | 0.311 | 0.601 | 0.591 | 0.826 | 0.5 | 0.977 | 0.928 | 0.528 | 0.328 | 0.793 | 0.224 | 0.992 | 0.552 | 0.974 | 0.599 | 0.308 | 0.467 |
| CC1(C)CCC(CN2CCN(c3ccc(C(=O)NS(=O)(=O)c4ccc(NCC5CCOCC5)c([N+](=O)[O-])c4)c(Oc4cnc5[nH]ccc5c4)c3)CC2)=C(c2ccc(Cl)cc2)C1 [Venetoclax] + CCN(CCO)CCCOc1ccc2c(Nc3cc(CC(=O)Nc4cccc(F)c4)[nH]n3)ncnc2c1 [AZD2811] (first compound max 1 µM, 7x7, partner max 1 µM) | 0.248 | 0.354 | 0.349 | 0.251 | 0.127 | 0.59 | 0.263 | 0.217 | 1 | 0.668 | 0.434 | 0.422 | 0.246 | 0.229 | 0.991 | 0.458 | 0.877 | 0.202 | 0.191 | 0.91 |
| CC1(C)CCC(CN2CCN(c3ccc(C(=O)NS(=O)(=O)c4ccc(NCC5CCOCC5)c([N+](=O)[O-])c4)c(Oc4cnc5[nH]ccc5c4)c3)CC2)=C(c2ccc(Cl)cc2)C1 [Venetoclax] + C[C@@H](Nc1cc(F)cc(F)c1)c1cc(C(=O)N(C)C)cc2c(=O)cc(N3CCOCC3)oc12 [AZD8186] (first compound max 1 µM, 7x7, partner max 3 µM) | 0.321 | 0.441 | 0.0234 | 0.533 | 0.243 | 0.288 | 0.263 | 0.186 | 0.792 | 0.279 | 0.434 | 0.447 | 0.344 | 0.19 | 0.988 | 0.472 | 1 | 0.0998 | 0.0248 | 0.143 |
| Cc1c2c(nn1C)CSCc1cc(n(C)n1)CSc1cc(c3ccccc3c1)OCCCc1c(C(=O)O)n(C)c3c-2c(Cl)ccc13 [AZD5991] + CCN(CCO)CCCOc1ccc2c(Nc3cc(CC(=O)Nc4cccc(F)c4)[nH]n3)ncnc2c1 [AZD2811] (first compound max 1 µM, 7x7, partner max 1 µM) | 0.368 | 0.365 | 0.66 | 0.234 | 0.269 | 0.641 | 0.4 | 0.421 | 1 | 0.409 | 0.366 | 0.335 | 0.311 | 0.284 | 0.797 | 0.986 | 1 | 0.256 | 0.575 | 0.949 |
| CCc1c2c(nc3ccc(O)cc13)-c1cc3c(c(=O)n1C2)COC(=O)[C@]3(O)CC [SN-38] + CN(C)CCCOc1ccc(-c2ccc3ncc4c(c3c2)n(C2CCOCC2)c(=O)n4C)cn1 [AZD0156] (first compound max 0.3 µM, 7x7, partner max 1 µM) | 1 | 0.572 | 0.728 | 0.925 | 0.497 | 0.859 | 0.587 | 0.838 | 1 | 0.627 | 0.248 | 0.639 | 0.408 | 0.692 | 0.947 | 0.797 | 0.987 | 0.199 | 0.402 | 0.303 |
| COc1cccc(OCCCN)c1-c1cc(Nc2cnc(C#N)cn2)n[nH]1 [Prexasertib] + C=CCn1c(=O)c2cnc(Nc3ccc(N4CCN(C)CC4)cc3)nc2n1-c1cccc(C(C)(C)O)n1 [AZD1775] (first compound max 1 µM, partner max 1 µM) | 0.805 | 0.718 | 0.95 | 0.868 | 0.237 | 0.967 | 0.708 | 0.973 | 0.989 | 0.741 | 0.599 | 0.745 | 0.746 | 0.894 | 0.955 | 1 | 0.955 | 0.63 | 0.813 | 0.936 |
| CCN(CCO)CCCOc1ccc2c(Nc3cc(CC(=O)Nc4cccc(F)c4)[nH]n3)ncnc2c1 [AZD2811] + C[C@@H]1COCCN1C2=NC(=NC(=C2)C3(CC3)[S@](=N)(=O)C)C4=C5C=CNC5=NC=C4 [AZD6738] (first compound max 1 µM, 7x7, partner max 10 µM) | 0.339 | 0.567 | 0.922 | 0.666 | 0.219 | 0.751 | 0.313 | 0.885 | 0.825 | 0.299 | 0.49 | 0.739 | 0.306 | 0.581 | 0.833 | 0.824 | 0.446 | 0.295 | 0.372 | 0.799 |
| CC1(C)CCC(CN2CCN(c3ccc(C(=O)NS(=O)(=O)c4ccc(NCC5CCOCC5)c([N+](=O)[O-])c4)c(Oc4cnc5[nH]ccc5c4)c3)CC2)=C(c2ccc(Cl)cc2)C1 [Venetoclax] + C1CN(CCC1(C(=O)N[C@@H](CCO)C2=CC=C(C=C2)Cl)N)C3=NC=NC4=C3C=CN4 [Capivasertib] (first compound max 1 µM, 7x7, partner max 3 µM) | 0.283 | 0.387 | 0.487 | 0.325 | 0.16 | 0.429 | 0.236 | 0.177 | 0.796 | 0.31 | 0.533 | 0.528 | 0.441 | 0.252 | 0.963 | 0.192 | 0.995 | 0.0942 | 0.564 | 0.196 |
| CC1(C)CCC(CN2CCN(c3ccc(C(=O)NS(=O)(=O)c4ccc(NCC5CCOCC5)c([N+](=O)[O-])c4)c(Oc4cnc5[nH]ccc5c4)c3)CC2)=C(c2ccc(Cl)cc2)C1 [Venetoclax] + C[C@@H]1COCCN1C2=NC(=NC(=C2)C3(CC3)[S@](=N)(=O)C)C4=C5C=CNC5=NC=C4 [AZD6738] (first compound max 1 µM, 7x7, partner max 10 µM) | 0.479 | 0.681 | 0.909 | 0.768 | 0.349 | 0.836 | 0.464 | 0.763 | 1 | 0.636 | 0.556 | 0.725 | 0.387 | 0.69 | 0.971 | 0.842 | 0.92 | 0.329 | 0.617 | 0.619 |
| C[C@@H]1COCCN1c1cc(C2([S@](C)(=N)=O)CC2)nc(-c2ccnc3[nH]ccc23)n1 [AZD6738] + O=C(c1cc(Cc2n[nH]c(=O)c3ccccc23)ccc1F)N1CCN(C(=O)C2CC2)CC1 [Olaparib] (first compound max 10 µM, 7x7, partner max 10 µM) | 0.787 | 0.99 | 0.926 | 0.658 | 0.194 | 0.777 | 0.374 | 0.821 | 0.723 | 0.418 | 0.548 | 0.703 | 0.356 | 0.538 | 0.816 | 0.614 | 0.621 | 0.262 | 0.527 | 0.561 |
| CC1(C)CCC(CN2CCN(c3ccc(C(=O)NS(=O)(=O)c4ccc(NCC5CCOCC5)c([N+](=O)[O-])c4)c(Oc4cnc5[nH]ccc5c4)c3)CC2)=C(c2ccc(Cl)cc2)C1 [Venetoclax] + CN(C)CCCOc1ccc(-c2ccc3ncc4c(c3c2)n(C2CCOCC2)c(=O)n4C)cn1 [AZD0156] (first compound max 1 µM, 7x7, partner max 1 µM) | 0.202 | 0.369 | 0.242 | 0.239 | 0.21 | 0.242 | 0.289 | 0.266 | 0.816 | 0.374 | 0.547 | 0.525 | 0.305 | 0.149 | 0.976 | 0.243 | 0.904 | 0.103 | 0.179 | 0.269 |

Source: the supplement of paper PMC11061612
